Experimental findings from ChEMBL document CHEMBL1201862, “PubChem BioAssay data set” (2004) are described below.

Structures are written as SMILES.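 Compound exposure: 48 hours, 5 concentrations, 96-well plates. At the GI50, growth is halved.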 Active and inactive are the calls of the source. Cut-off read from the data, not from the text of the source: active = GI50 up to about 1.1 µM and inactive = higher.

Experiment in all cases: inhibition of tumour cell growth, NCI panel, 48 h
Test [1] has as its system DMS-273.
For test [2], the system named is M19-MEL.
The subject of test [3] is KM-20L2.
Test [4] relates to DLD-1.
Test [5] deals with SNB-78.
The test system of test [6] is XF498.
The subject of test [7] is DMS-114.
For test [8], the system named is HOP-18.
The test system of test [9] is RXF 631.

As to `O=C(O)CNS(=O)(=O)c1ccc(NCc2ccccc2)cc1`, the GI50 in [1], in test [2], in test [3], in test [4], in [5] and in test [6] was > 100 µM (inactive) throughout. Moreover, the GI50 in test [7] and in [8] was > 100 µM (inactive) in each case.

Take `Cc1ccc(Oc2ccc(C)cc2N)cc1`: the GI50 in test [1] is 75 µM (inactive); in [2] it was > 100 µM (inactive); in [3] it was > 100 µM (inactive); in test [4] it was 66.1 µM (inactive); in [5], 75.5 µM (inactive); in test [7] it was 49.4 µM (inactive). For the same compound, the GI50 in [8] was > 100 µM (inactive).

Consider `CCC1CN2CCc3c([nH]c4ccccc34)C2C[C@@H]1CC(=O)N(C)C` (stereo not given in full), for which the GI50 in test [1], in test [2], in test [3], in test [4], in test [5] and in [6] was > 100 µM (inactive) each time. Besides, the GI50 in test [7] and in [8] was > 100 µM (inactive) throughout.

Turning to `O=[N+]([O-])c1cccc(C2=NOC3C4CCC(C4)C23)c1` (stereo not given), the GI50 in test [1], in test [2], in [9], in test [4], in test [7] and in test [8] was > 100 µM (inactive) throughout.

In the case of `COCCOCOC(CCCCO)c1cc(C)c(O[Si](C)(C)C(C)(C)C)c(C)c1` (stereo not given), the GI50 in test [2] was 5.11 µM (inactive); in test [3], 4.72 µM (inactive); in test [7], 2.47 µM (inactive); in test [8], 16.9 µM (inactive).

Regarding `C#CCN(N=O)C(=O)NC(CCCCNC(=O)OCc1ccccc1)C(=O)OCc1ccccc1` (stereo not given), the GI50 is 43.9 µM (inactive) in test [1]; 34.2 µM (inactive) in [2]; 54.6 µM (inactive) in test [3]; 20.1 µM (inactive) in test [4]; 34.1 µM (inactive) in [5]; 19.8 µM (inactive) in test [7]. For the same compound, the GI50 in [8] was 20 µM (inactive).

In the case of `CC1=C(C(=O)Nc2cccc(Cl)c2)C(c2ccccc2F)C(C(=O)Nc2cccc(Cl)c2)=C(C)N1`, the GI50 in [1] was 11.9 µM (inactive); in test [2], 11.6 µM (inactive); in test [9], 10.1 µM (inactive); in [3], 7.46 µM (inactive); in test [4], 10.4 µM (inactive); in [5], 18.7 µM (inactive). For the same compound, in [7], the GI50 is 6.32 µM (inactive).

Consider `Cc1ccc(C(=O)N(C(C)C)C(C)C)cc1/N=N/N(C)C`, for which the GI50 in test [1] is > 100 µM (inactive); in [2] it was > 100 µM (inactive); in test [3] it was > 100 µM (inactive); in [4], 77.4 µM (inactive); in test [5] it was 35.9 µM (inactive).

For the compound `COC(=O)C(=O)C(C(C)=O)C(=O)NCc1ccccc1` (stereo not given), the GI50 in test [1], in [2], in [3], in test [4], in [5] and in test [6] was > 100 µM (inactive) in each case. For the same compound, the GI50 in test [7] and in test [8] was > 100 µM (inactive) in each case.

With `CC1=NN(C(=O)Cc2ccccc2)C(=O)/C1=C\c1ccco1`, the GI50 in test [1], in test [2], in test [4], in test [5], in test [6] and in test [7] was > 100 µM (inactive) throughout. In [8], the GI50 was > 100 µM (inactive).

Regarding `N#CC1(C#N)C(C#N)(C#N)C12CCCCCC2`, the GI50 in [1] is 22.4 µM (inactive); in test [2], 20.5 µM (inactive); in test [3] it was 16.6 µM (inactive); in test [4], 4.1 µM (inactive); in test [5], 13.3 µM (inactive); in test [7], 21.1 µM (inactive). In test [8], the GI50 was 16.4 µM (inactive).

For the compound `COC(=O)CCC(NC(=S)N/N=C(\C)c1cnc2ccccc2n1)C(=O)OC` (stereo not given), the GI50 was 38.5 µM (inactive) in test [1]; 52.6 µM (inactive) in [9]; 15.5 µM (inactive) in test [3]; 29 µM (inactive) in [4]; > 100 µM (inactive) in [5]; > 100 µM (inactive) in test [6]. Besides, in [8], the GI50 was 39.4 µM (inactive).

In the case of `COc1ccc2c(NCCCCCCNc3c4ccccc4nc4cc(OC)ccc34)c3ccccc3nc2c1`, the GI50 in test [1] is 0.0313 µM (active); in test [2], 0.0484 µM (active); in test [9], 0.126 µM (active); in test [3], 0.065 µM (active); in test [4] it was 0.242 µM (active); in test [5], 0.12 µM (active). The GI50 is 0.1 µM (active) in [7] and 2.15 µM (inactive) in [8].

In the case of `COc1ccc2oc3c4c2c1CCC4CCC3=O` (stereo not given), the GI50 in test [1], in test [2], in [9], in test [5], in [6] and in [7] was > 100 µM (inactive) each time.

Turning to `CC1=NN(c2ccccc2)C(=O)C1=C1SCCS1`, the GI50 in test [1] was > 58.3 µM (inactive); in test [2] it was 41.8 µM (inactive); in test [9], > 89.7 µM (inactive); in [3], > 65.6 µM (inactive); in [4] it was 32.6 µM (inactive); in test [5], > 100 µM (inactive). Besides, the figures for the GI50 in test [6], in test [7] and in [8] were 32.7 µM (inactive), > 46.3 µM (inactive) and 36.3 µM (inactive), respectively.

In the case of `Cc1cc(Cl)ccc1NC(=O)C(=O)Cc1occc(=O)c1O`, the GI50 in test [1], in test [2], in [9], in test [3], in [4] and in test [5] was > 100 µM (inactive) in each case. Besides, the GI50 in [6], in [7] and in test [8] was > 100 µM (inactive) in each case.

`COc1ccc(/C=C\c2cc(OC)c3c(c2)OCO3)c(O)c1O`: the GI50 in test [1] is 20 µM (inactive); in test [2], 6.19 µM (inactive); in [3], 23.2 µM (inactive); in [4], 6.28 µM (inactive); in test [5] it was 3.94 µM (inactive); in [6], 11.1 µM (inactive). In addition, the GI50 was 2.88 µM (inactive) in [7] and 20.6 µM (inactive) in test [8].

For the compound `NCCSc1nc(N)c2ncn(C3OC(CO)C(O)C3O)c2n1` (stereo not given), the GI50 in [1], in test [2], in test [3], in test [4], in test [5] and in [6] was > 100 µM (inactive) throughout. Moreover, the GI50 in test [7] and in test [8] was > 100 µM (inactive) in each case.

In the case of `Oc1cc(-c2ccccn2)nc2cccc(F)c12`, the GI50 in [2], in [9], in test [3], in test [4], in [5] and in [7] was > 100 µM (inactive) in each case. In [8], the GI50 is > 100 µM (inactive).

Regarding `COc1ccc2nc(-c3ccc(OCc4ccccc4)cc3)ccc2c1`, the GI50 in test [2], in test [3], in [4], in [5], in test [6] and in test [7] was > 100 µM (inactive) each time. The GI50 in [8] is > 100 µM (inactive).

`CCCN1CC=CCC1`: the GI50 in test [2], in test [3], in test [4], in test [6], in [7] and in test [8] was > 100 µM (inactive) each time.

In the case of `CN(C)CCNC(=O)c1cccc2c1nc(-c1ccncc1)c1ccccc12`, the GI50 in [1] was 0.767 µM (active); in test [2] it was 2.82 µM (inactive); in test [4] it was 2.38 µM (inactive); in test [5], 5.9 µM (inactive); in test [7] it was 2.84 µM (inactive); in [8], 9.91 µM (inactive).

For the compound `Cc1c(C(=O)/C=C/c2ccco2)[n+]([O-])c2ccccc2[n+]1[O-]`, the GI50 is > 100 µM (inactive) in test [1]; > 100 µM (inactive) in test [2]; 18.6 µM (inactive) in test [9]; > 100 µM (inactive) in test [3]; > 100 µM (inactive) in [4]; > 100 µM (inactive) in test [5]. Also, the GI50 in [6] is > 100 µM (inactive); in [7], 73.5 µM (inactive); in test [8], > 100 µM (inactive).

Turning to `CC1(c2ccc(F)cc2)C2C(=O)NC(=O)C1C(=O)NC2=O` (stereo not given), the GI50 in test [1], in [2], in [3], in test [4], in test [5] and in test [6] was > 100 µM (inactive) throughout. For the same compound, in test [7], the GI50 was > 100 µM (inactive).

For the compound `CCOc1ccc2c(c1)[n+]([O-])c(S(=O)(=O)c1ccc(C)cc1)c(N)[n+]2[O-]`, the GI50 in test [2], in test [3], in [4], in [5], in test [7] and in [8] was > 100 µM (inactive) each time.

As to `CCc1cccc(C(C)CC)c1NC(=O)C(=O)Cc1nc2ccccc2o1` (stereo not given), the GI50 in test [1], in test [2], in test [3], in test [4], in test [5] and in test [6] was > 50 µM (inactive) in each case. In addition, the GI50 in test [7] was > 50 µM (inactive).

In the case of `COc1ccc(C(=O)Cc2c(C(=O)c3ccccc3)c3ccccc3n2C(=O)c2ccccc2)cc1`, the GI50 was 5.38 µM (inactive) in test [1]; > 100 µM (inactive) in test [2]; > 100 µM (inactive) in test [3]; 74 µM (inactive) in test [4]; > 100 µM (inactive) in test [6]; 50.7 µM (inactive) in [7].
